{"source": "patent US20060100291A1", "about": "“Antibacterial compounds” (priority 2001, published 2006)", "key": {"[1]": {"test_system": "Bacillus subtilis (ATCC strain 19659)", "assay": "Disc diffusion assay", "type": "cell-based", "settings": "for BS activity: width of zone of growth inhibition / zone of inhibition at 60 µg/disc: disc assay dosed at 60 μg/disc, 24 h; for zone of inhibition at 60 µg/disc: read-out: BS activity: width of zone of growth inhibition", "protocol": "The compounds of Examples 1 to 7 were also tested against another Gram-positive bacterium, Bacillus subtilis (ATCC strain 19659), in disc diffusion assays. […] The positive control in this assay was the clinically proven antimicrobial agent chloramphenicol (30 μg/disc), which gave a 12 mm zone."}, "[2]": {"test_system": "Methicillin Resistant Staphylococcus aureus (MRSA) (strain 1126)", "assay": "MIC in Mueller Hinton broth, serial doubling dilutions", "type": "cell-based", "protocol": "Minimum inhibitory concentrations [MIC] were tested in Mueller Hinton [MH] broth. The human pathogen Methicillin Resistant Staphylococcus aureus (MRSA) (strain 1126) was provided by the University of Otago. Glass vials (30 mL) containing MH broth (10 mL) were inoculated from an actively growing culture and incubated overnight at 37° C. A standardized procedure to suspend each compound in MH broth was used. Each compound (5 mg) was dissolved in ethanol (1 mL). MH broth (9 mL) was then added to the ethanol containing the compound, resulting in stock solution concentrations of 500 μg /mL.\nThe MIC for each compound was determined by carrying out 3 replicate serial dilutions in Nunc® 48 well microtiter plates. To test the MICs, each compound stock solution was vigorously mixed before I mL was dispensed aseptically by pipette into 3 of the 6 first wells of a microtiter plate. MH broth (0.5 mL) was dispensed into all wells of the microtiter plate except the first row. Serial doubling dilutions were carried out through 12 wells (1½ microtiter plates). Mixing was carried out by repeated pipetting of 100 μL amounts. 500 μL was discarded from the last wells to conserve the […] compound concentration. Each well was inoculated with an aliquot (25 μL) of MRSA suspension diluted by 10^−2. All test and control microtiter plates were incubated at 37° C. and read after 48 h and 72 h."}, "[3]": {"test_system": "listera monocytogenes", "assay": "MIC against Listeria, by similar methods", "type": "cell-based"}, "[4]": {"test_system": "E. faecium AR99/118 Ampicillin resistant", "assay": "Broth microdilution MIC (THB)", "type": "cell-based", "settings": "Enterococcus faecium, three experiments", "protocol": "(§1) Minimum inhibitory concentrations (MICs) were determined using a broth microdilution method. Bacterial isolates were inoculated into Todd-Hewitt broth (THB) and incubated at 37 C with shaking (200 rpm) for 18 h. Overnight cultures were diluted to an OD of 0.01 (at […], 1 cm light path) to give a final inoculum for broth microdilution of OD 0.005. Doubling dilutions of the test compounds were prepared in THB in microtitre plates. Tween 80 (Sigma) was added at a final concentration of 14 % to enhance solubility. The range of concentrations tested (with doubling dilutions) was 16 μg/mL to 0.063 μg/mL. Microtitre plates were incubated at 37 ° C. for 18 h with gentle shaking. Plates were read using a microplate reader (Multiskan Ascent, Labsystems), measuring the OD at 595 nm. Minimum bactericidal concentrations (MBCs) were determined by placing 5 μL of culture from wells without growth onto THB plates and incubating at 37° C. for 18 h. The MBC was the lowest concentration without growth from the drop of culture."}, "[5]": {"test_system": "S. aureus PC-3 Vancomycin/Oxacillin resistant (GISA)", "assay": "Broth microdilution MIC (THB)", "type": "cell-based", "settings": "Staphylococcus aureus, three experiments", "protocol": "as §1"}, "[6]": {"test_system": "Enterococcus faecalis 8A-25 Vancomycin resistant (VRE, vanA)", "assay": "Broth microdilution MIC (THB)", "type": "cell-based", "settings": "E. faecalis 8A-25 vancomycin resistant (VRE, vanA), three experiments", "protocol": "as §1"}, "[7]": {"test_system": "S. aureus OUM1126 Oxacillin resistant (MRSA)", "assay": "Broth microdilution MIC (THB)", "type": "cell-based", "settings": "Staphylococcus aureus, three experiments", "protocol": "as §1"}, "[8]": {"test_system": "S. aureus ATCC25923 Wild-type (fully susceptible)", "assay": "Broth microdilution MIC (THB)", "type": "cell-based", "settings": "three experiments", "protocol": "as §1"}, "[9]": {"test_system": "S. aureus OUM1127 Erythromycin resistant", "assay": "Broth microdilution MIC (THB)", "type": "cell-based", "settings": "Staphylococcus aureus, three experiments", "protocol": "as §1"}, "[10]": {"test_system": "S. aureus ST94/1208 Oxacillin/Gentamicin resistant (cMRSA)", "assay": "Broth microdilution MIC (THB)", "type": "cell-based", "settings": "Staphylococcus aureus, three experiments", "protocol": "as §1"}, "[11]": {"test_system": "Enterococcus faecalis ATCC29212 Wild-type (fully susceptible)", "assay": "Broth microdilution MIC (THB)", "type": "cell-based", "settings": "three experiments", "protocol": "as §1"}, "[12]": {"test_system": "Enterococcus faecalis CD2-49 Gentamicin resistant", "assay": "Broth microdilution MIC (THB)", "type": "cell-based", "settings": "E. faecalis CD2-49 gentamicin resistant, three experiments", "protocol": "as §1"}, "[13]": {"test_system": "S. aureus AS92/349 Mupirocin resistant", "assay": "Broth microdilution MIC (THB)", "type": "cell-based", "settings": "three experiments", "protocol": "as §1"}, "[14]": {"test_system": "Enterococcus and S. aureus strains tested in Table 2", "assay": "Bacteriostatic/bactericidal concentrations (MIC/MBC) over the strains of Table 2", "type": "cell-based", "settings": "all strains of Table 2; read-out: Bacteriocidal concentration (MBC)", "protocol": "as §1"}, "[15]": {"test_system": "Swiss male mice (Mus musculus)", "assay": "Acute toxicity in mice, intraperitoneal injection", "type": "in vivo", "settings": "for acute toxic effects: ip in cottonseed oil, up to 400 mg/kg, observed 6 h plus 18 h", "protocol": "Compound I has been tested in mice for acute toxicity.\nA single trial was completed using twenty-five Swiss male mice (Mus musculus), weighing 20 g±2 g. Mice were selected by gender and weight, individually identified and randomly placed in 5 cages of 5 mice each. Mice were injected intraperitoneally with one of five levels of antibiotic [0 (control), 1, 2, 4 and 8 mg/ml]. Cottonseed oil was used as a carrier solution for the test substance. One mL samples were mixed before being injected using 1.0 ml syringes and 21G needles. Mice were observed continuously for 6 hours and any deaths or adverse symptoms recorded. This initial hour observation period was subsequently followed by another 18-hour monitoring period. […] This was also the case for mice injected solely with cottonseed oil. This is in direct contrast to weekly calibration assays using the toxic control saxitoxin dihydrochloride."}, "[16]": {"settings": "background statement, organism not given; cited from earlier work"}, "[17]": {"settings": "MH broth, 37° C., read after 48 h and 72 h, University of Otago strain 1126, read-out: MRSA activity: upper and lower limits of Minimum Inhibitory Concentration"}}, "note": "Entries after “also recorded” stand apart in the source; their conditions may differ. Where two headings read alike, the source gives them in different places.", "data": [{"compound": "5-hydroxy-4-(1-oxopropylcyclohexl)-2,6,6-tetramethyl-4-cyclohexene-1,3-dione [Example 5]", "values": [{"measurement": "BS activity: width of zone of growth inhibition", "setting": "[1]", "value": 12, "unit": "mm"}]}, {"compound": "CCCCCCCCCCCC(=O)C1=C(O)C(C)(C)C(=O)C(C)(C)C1=O", "note": "[Example 1, 5-hydroxy-4-(1-oxododecyl)-2,2,6,6-tetramethyl-4-cyclohexene-1,3-dione]", "values": [{"measurement": "MIC", "setting": "[2]; [17]", "value": "0.5 to 1", "unit": "µg/mL"}, {"measurement": "MIC", "setting": "[3]", "value": "< 3.9", "unit": "µg/mL"}, {"measurement": "MIC", "setting": "[4]", "value": 2, "unit": "µg/mL"}, {"measurement": "MIC", "setting": "[5]", "value": 2, "unit": "µg/mL"}, {"measurement": "MIC", "setting": "[6]", "value": 1, "unit": "µg/mL"}, {"measurement": "MIC", "setting": "[7]", "value": 1, "unit": "µg/mL"}, {"measurement": "MIC", "setting": "[8]; S. aureus ATCC25923 wild-type", "value": 1, "unit": "µg/mL"}, {"measurement": "MIC", "setting": "[8]; Staphylococcus aureus, ATCC25923, S. aureus ATCC25923 wild-type, read-out: MIC", "value": 2, "unit": "µg/mL"}, {"measurement": "MIC", "setting": "[9]", "value": 1, "unit": "µg/mL"}, {"measurement": "MIC", "setting": "[10]", "value": 1, "unit": "µg/mL"}, {"measurement": "MIC", "setting": "[11]; E. faecalis ATCC29212 wild-type", "value": 0.5, "unit": "µg/mL"}, {"measurement": "MIC", "setting": "[11]; Enterococcus faecalis, ATCC29212, E. faecalis ATCC29212 wild-type, read-out: MIC", "value": 1, "unit": "µg/mL"}, {"measurement": "MIC", "setting": "[12]", "value": 0.5, "unit": "µg/mL"}, {"measurement": "MIC", "setting": "[12]; Enterococcus faecalis, read-out: MIC", "value": 1, "unit": "µg/mL"}, {"measurement": "MIC", "setting": "[13]; Staphylococcus aureus, read-out: MIC", "value": 1, "unit": "µg/mL"}, {"measurement": "MIC", "setting": "[13]", "value": 2, "unit": "µg/mL"}, {"measurement": "zone of inhibition at 60 µg/disc", "setting": "[1]; Bacillus subtilis, ATCC19659", "value": 3, "unit": "mm"}, {"measurement": "MBC", "setting": "[14]", "value": "≥ 8", "unit": "µg/mL"}, {"measurement": "mouse deaths", "setting": "[15]; ip in cottonseed oil, 1, 2, 4 and 8 mg/ml, 1 mL", "value": "no mouse deaths were recorded"}, {"measurement": "acute toxic effects", "setting": "[15]; listed as Compound I", "value": "no toxic effects; also recorded: no adverse toxic symptoms"}, {"measurement": "acute toxic effects", "setting": "[15]; listed as Example I", "value": "not toxic to mice"}]}, {"compound": "CCCCCCCCCC(=O)C1=C(O)C(C)(C)C(=O)C(C)(C)C1=O", "note": "[Example 2, 5-hydroxy-4-(1-oxodecyl)-2,2,6,6,-tetramethyl-4-cyclohexene-1,3-dione]", "values": [{"measurement": "BS activity: width of zone of growth inhibition", "setting": "[1]", "value": 7, "unit": "mm"}]}, {"compound": "CCCCCCCCCCCCCCCC(=O)C1=C(O)C(C)(C)C(=O)C(C)(C)C1=O", "note": "[Example 3, 5-hydroxy-4(1-oxohexadecyl)-2,2,6,6-tetramethyl-4-cyclohexene-1,3-dione]", "values": [{"measurement": "MIC", "setting": "[2]; [17]", "value": "2 to 7.8", "unit": "µg/mL"}, {"measurement": "zone of inhibition at 60 µg/disc", "setting": "[1]; Bacillus subtilis, ATCC19659", "value": 0, "unit": "mm"}, {"measurement": "melting point", "value": 39, "unit": "°C"}]}, {"compound": "CC1(C)C(=O)C(C2(C=O)CCCCC2)=C(O)C(C)(C)C1=O", "note": "[Example 4, 5-hydroxy-4(1-oxomethylcyclohexyl)-2,2,6,6-tetramethyl-4-cyclohexene-1,3dione]", "values": [{"measurement": "MIC", "setting": "[2]; [17]", "value": "15.6 to 62.5", "unit": "µg/mL"}, {"measurement": "zone of inhibition at 60 µg/disc", "setting": "[1]; Bacillus subtilis, ATCC19659", "value": 0, "unit": "mm"}, {"measurement": "melting point", "value": 47.8, "unit": "°C"}]}, {"compound": "CCCCCCCCCCCC(=O)C1=C(O)C(CC)(CC)C(=O)C(CC)(CC)C1=O", "note": "[Example 6]", "values": [{"measurement": "BS activity: width of zone of growth inhibition", "setting": "[1]", "value": 0, "unit": "mm"}]}, {"compound": "CCCCCCCCCCCC(=O)C1=C(O)C(C)(C)C(=O)C(C)(CC=C(C)C)C1=O", "note": "(centres unmarked) [Example 7, 5-hydroxy-4-(1-oxododecyl)-2-prenyl-2,6,6trimethyl-4-cyclohexene-1,3-dione]", "values": [{"measurement": "MIC", "setting": "[2]; [17]", "value": "1 to 2", "unit": "µg/mL"}, {"measurement": "zone of inhibition at 60 µg/disc", "setting": "[1]; Bacillus subtilis, ATCC19659", "value": 0, "unit": "mm"}]}, {"compound": "O=C(N[C@H](CO)[C@H](O)c1ccc([N+](=O)[O-])cc1)C(Cl)Cl", "note": "[chloramphenicol, reference compound]", "values": [{"measurement": "zone of inhibition at 30 µg/disc", "setting": "[1]; Bacillus subtilis, ATCC19659, positive control, 30 μg/disc, read-out: width of zone of inhibition", "value": 12, "unit": "mm"}]}, {"compound": "CN[C@H](CC(C)C)C(=O)N[C@H]1C(=O)N[C@@H](CC(N)=O)C(=O)N[C@H]2C(=O)N[C@H]3C(=O)N[C@H](C(=O)N[C@H](C(=O)O)c4cc(O)cc(O)c4-c4cc3ccc4O)[C@H](O)c3ccc(c(Cl)c3)Oc3cc2cc(c3O[C@@H]2O[C@H](CO)[C@@H](O)[C@H](O)[C@H]2O[C@H]2C[C@](C)(N)[C@H](O)[C@H](C)O2)Oc2ccc(cc2Cl)[C@H]1O", "note": "[vancomycin, reference compound]", "values": [{"measurement": "MIC", "setting": "[2]; read-out: MRSA activity: upper and lower limits of Minimum Inhibitory Concentration", "value": "1.6 to 3.1", "unit": "µg/mL"}, {"measurement": "MIC", "setting": "[16]", "value": "approximately 2 μg/ml"}]}]}
